Data published in US20090209620A1, “Direct Reversal Of The Suppressive Function Of CD4+Regulatory T Cells Via Toll-Like Receptor 8 Signaling” (priority 2005, published 2009).

Tested on: CD4+ Treg cells (Treg102, Treg164)
Experiment: Proliferation assay with dendritic cells: Treg suppression of naive CD4+ T cell proliferation ([3H]thymidine)
Type: cell-based, human
Conditions: with DCs and soluble anti-CD3; CpG-A 3 ug/ml
Excerpt: Establishing Treg cell lines and purifying natural CD4^+ CD25^+ Treg cells CD4^+ Treg clones were established from CD4^+ tumor-infiltrating lymphocytes (TIL102 and TIL164) and maintained in RPMI 1640 medium containing 10% human AB serum and recombinant IL-2 (300 IU/ml) using methods well known in the art (See, e.g., H. Y. Wang et al., Immunity 20, 107-118 (2004)). Treg clones derived from TIL102 or TIL164 cells were pooled and designated Treg102 or Treg164. Naturally occurring CD4^+ CD25^+ Treg cells were obtained by sorting CD4^+ T cell populations from fresh PBMCs after staining with anti-CD4 and anti-CD25 antibodies. To obtain optimal expansion, the OKT3 expansion method was performed using methods well known in the art (See, e.g., H. Y. Wang et al., Immunity 20, 107-118 (2004)). T cell clones were maintained at a low IL-2 concentration (300 IU/ml). Melanoma cell lines and EBV-transformed B-cell lines used in this study were cultured in RPMI 1640 medium containing 10% FCS. Human embryonic kidney (HEK) 293 and Epstein-Barr virus (EBV)-transformed B cell lines were maintained in RPMI 1640 with 10% fetal calf serum (FCS).
A. Proliferation assay with Dendritic Cells (DCs): Näive CD4^+ T cells were purified from PBMCs using microbeads (Miltenvi Biotec). DCs were generated from PBMC-derived monocytes in the presence of IL-4 (500 ng/ml) and GM-CSF (800 ng/ml) for 7 days. 1×105 näive CD4^+ T cells were cultured with regulatory T cells at different ratios (1: 0.2, 1:0.1 and 1:0.05) in 200 ul of medium containing 2×104 of DCs and anti-CD3 antibody (100 ng/ml) plus one of the following TLR ligands or cytokines: CpG-A (3 ug/ml), CpG-B (3 ug/ml), LPS (100 ng/ml), TNF.-α (20 ng/ml), IFN-α (100 ng/ml), or IL-6 (100 ng/ml). After 56 h of culture, [3H]thymidine was added at a final concentration of 1 uCi/well, followed by an additional 16 h. of culture. The incorporation of [^3H]thymidine was measured with a liquid scintillation counter, using methods well known in the art (See, e.g., M. K. Levings et al., J. Exp. Med. 196, 1335-46 (2002)). All experiments were performed in triplicate.
Two CD4^+ Treg cell lines, designated Treg102 and Treg164, were generated with a panel of Treg cell clones derived from TIL102 and TIL164 cells. […] A functional proliferation assay was employed to examine whether CpG (a TLR9 ligand), LPS (a TLR4 ligand) or the cytokines IL-6 or IFN-α could regulate the suppressive activity of antigen specific human CD4^+ Treg cells in the presence of DCs. […]

## G* GGGGACGATCGTCG* G*G*G*G*G [CpG-A]
  proliferation of naive CD4+ T cells restored, % of normal levels: 50-80%
